In patent US5235045A, “Non-azo naphthalimide dyes” (priority 1992, dated 1993):
Read-outs that look alike come from different tables or passages of the source.

Experiments:
[1] = Binding kinetics of dye to synthetic vesicles (fluorescence increase)
Method: All of the vehicles used in these studies were prepared to have a final lipid, egg lecithin+cholesterol concentration of 10 mg/ml. Cholesterol concentrations were varied between 0 and 45 mol % by varying the lipid composition from which the vesicles were produced. The subject dyes were added in 10% aqueous isopropyl alcohol solutions to vesicle suspensions in water. The dyes are non-fluorescent in 10% aqueous isopropy alcohol, but are highly fluorescent in vesicles. The increase in fluorescence was monitored at an excitation wavelength of 460 nm and an emission wavelength of 519 nm. Fluorescence intensity was measured as a function of time, and fit to a standard first-order kinetic plot.

[2] = system: Bovine Herpes Virus Type I; test: Photoinactivation of Bovine Herpes Virus Type I (CPE, TCID50); format: cell-based, Bovine Herpes Virus Type I (BHV-1); conditions: light or radiation study, 10J/cm^2; for killing at 0.035 µM / killing at 0.07 µM / killing at 0.14 µM / killing at 0.27 µM / killing at 0.54 µM / killing at 1.09 µM: read-out: % Inactivation; for killing at 0.07 µM / log reduction at 0.07 µM: 0.070 μM
Method: Bovine Herpes Virus Type I (BHV-1). Cell-free and serum-free virus (BHV-1 reference strain from Dr. M. L. Vickers, ADL SDSU) was purified by potassium tartrate gradient ultracentrifugation. Virus was then resuspended in minimal buffer. Compound VII was diluted with ethanol to a concentration of 5 mg/ml. The dye stock solution was prepared by sequentially adding the ethanolic dye solution to fetal bovine serum (FBS), and diluting the dye-FBS mixture with MEM to give 10% FBS in MEM, so that the final concentration of the compound was 500 ng/ml. All dilutions of the dye in the medium were made from this stock solution. Dye/virus mixtures were all prepared as 1:1 mixtures of virus and dye stock solution. The virus was incubated for 30 min at 37° C. prior to irradiation, and then irradiated using a xenon arc lamp to give 10J/cm^2 total irradiative flux. Photomodified virus was then incubated with the appropriate cells (fetal bovine lung - FBL - or MDBK) in 10% FBS in MEM for 1 hour. Then unbound virus was taken off, the cells were washed with Ca/Mg-free PBS, and the cells were then placed in 10% FBS-MEM. The cells were incubated for 24 hours at 37° C. in a 5% CO2 incubator. After 24 and 48 hours, the cells were assayed for cytophathic effect (CPE), and the results expressed in terms of using TCID50 units. The viral inactivation data are expressed in terms of % inactivation in Table 12.

H9 cells [3] = test: Take-up of Ed6Br by H9 cells; format: cell-based, human; conditions: for Cellular Ed6Br: 22° C.
Method: H9 cells (an immortal human T-cell lymphoma) were cultured in RPMI-1640 medium containing 10% additional fetal calf serum held in air with a 5% CO2 atmosphere at 37.5° C. to a cell density in the range of 10^5 -10^7 per ml. Cells were harvested by centrifugation and four 3-milliliter aliquots containing 5×10^5 H9 cells per ml suspended in RPM I-1640 medium with 10% additional fetal calf serum were prepared. […] The fourth aliquot served as a dye-free control. Immediately after addition of the dyes, 1 ml samples were harvested from each aliquot and the cells washed by dilution into 3 ml phosphate buffered saline (pH 7.3), followed by two repetitions of centrifugation, decantation of the supernatant, and resuspension of the cell pellet in the buffered saline solution, and a final centrifugation, decantation, and retention of the cell pellet at 4° C. for subsequent analysis. At the subsequent elapsed incubation times at 1, 2, 3, and 4 hrs., one milliliter samples were harvested and treated in an identical fashion. After treatment of the 4-hr. sample, the cells of each sample were lysed in 3 ml of an 0.1% solution of ctyltetraammonium bromide detergent in phosphate buffered saline (pH=7.3). The fluorescence emission at 520 nm (420 nm excitation) of each sample was determined with a SLM SPT 500C spectrofluorometer. Additionally, the emission intensity of samples of these detergent solutions having, respectively, dye concentrations of […] were prepared as standards for calibrating the concentration dependence of the fluorescence emission.

H9 cells [4] = test: Location in living cells (fluorescence microscopy); format: cell-based, human; conditions: 5 and 25 μM; 1.5 hours
Method: Following the protocol of (1), above, H9 cells were stained with Compound lb, and the technique of fluorescent microscopy was used to determine visually the sites of localization of dye fluorescence in living cells. Specifically, H9 cells were counted with a hemocytometer and diluted to 5×10^5 /ml. Compound 1b was added to two aliquots to give dye concentrations of 5 and 25 μM, and the tubes were incubated for 1.5 hours. Cytospin slides of the cell suspensions were made and they were examined with the fluorescence microscope (Olympus AH-2) using B excitation plus a 460 nm interference excitation filter and a 495 nm emission filter. The cells were also counted with a hemocytometer and their viability determined (see below). […] The former may reflect the diffusional component of the dye incorporation, or may reflect binding in the ER membrane. The latter may indicate lysosomal localization of pinocytosed dye as occurs with Lucifer Yellow.

[5] = 4 hr, external 25 mM (so in the source)

Compound: CCCCCCNc1c(Br)cc2c3c(cccc13)C(=O)N(CCCCCC)C2=O [Compound VII, 3-bromo-4-(hexyl)amino-N-hexyl-1,8-naphthalimide]
- rate constant for binding ([1]; 0 mol % cholesterol): 0.814 ± 0.005 × 10^-3 s^-1
- rate constant for binding ([1]; 15 mol % cholesterol): 1.020 ± 0.005 × 10^-3 s^-1
- rate constant for binding ([1]; 30 mol % cholesterol): 1.54 ± 0.02 × 10^-3 s^-1
- rate constant for binding ([1]; 45 mol % cholesterol): 2.75 ± 0.01 × 10^-3 s^-1
- killing at 0.035 µM ([2]; 24 h): 99.4%
- log reduction at 0.035 µM ([2]; 24 h, read-out: log10 red.): 3.2
- killing at 0.035 µM ([2]; 48 h): 89.9%
- log reduction at 0.035 µM ([2]; 48 h, read-out: log10 red.): 0.95
- killing at 0.07 µM ([2]; 24 h): 99.8%
- log reduction at 0.07 µM ([2]; 24 h, read-out: log10 red.): 3.7
- killing at 0.07 µM ([2]; 48 h): 98.7%
- log reduction at 0.07 µM ([2]; 48 h, read-out: log10 red.): 2
- killing at 0.14 µM ([2]; 24 h): > 100%
- log reduction at 0.14 µM ([2]; 24 h, read-out: log10 red.): > 3.7
- killing at 0.14 µM ([2]; 48 h): 99.4%
- log reduction at 0.14 µM ([2]; 48 h, read-out: log10 red.): 3.2
- killing at 0.27 µM ([2]; 24 h): > 100%
- log reduction at 0.27 µM ([2]; 24 h, read-out: log10 red.): > 3.7
- killing at 0.27 µM ([2]; 48 h): 99.4%
- log reduction at 0.27 µM ([2]; 48 h, read-out: log10 red.): 3.2
- killing at 0.54 µM ([2]; 0.54 μM, 24 h): > 100%
- killing at 0.54 µM ([2]; 0.54 μM, 48 h): > 100%
- log reduction at 0.54 µM ([2]; 0.54 μM, 48 h, read-out: log10 red.): > 3.7
- log reduction at 1.09 µM ([2]; 24 h): > 3.7
- killing at 1.09 µM ([2]; 24 h): > 100%
- log reduction at 1.09 µM ([2]; 48 h): > 3.7
- killing at 1.09 µM ([2]; 48 h): > 100%
- average dye concentration in H9 cell (H9 cells [3]; [5]): about 1.92 millimolar
- cellular over external concentration (H9 cells [3]; [5]): approximately 77 times
- increased concentration of the dye by the cell (H9 cells [3]; 4 hr, external 1 and 5 mm (so in the source)): ~70 fold
- Cellular Ed6Br (H9 cells [3]; external 1 μM, 0 hr, 1 a° mol = 1 × 10^-18 mol): 91.2 a° mol/cell
- Cellular Ed6Br (H9 cells [3]; external 1 μM, 1 hr): 130.2 a° mol/cell
- Cellular Ed6Br (H9 cells [3]; external 1 μM, 2 hr): 189.8 a° mol/cell
- Cellular Ed6Br (H9 cells [3]; external 1 μM, 3 hr): 186.0 a° mol/cell
- Cellular Ed6Br (H9 cells [3]; external 1 μM, 4 hr): 208.3 a° mol/cell
- Cellular Ed6Br (H9 cells [3]; external 5 μM, 0 hr): 165.6 a° mol/cell
- Cellular Ed6Br (H9 cells [3]; external 5 μM, 1 hr): 385.1 a° mol/cell
- Cellular Ed6Br (H9 cells [3]; external 5 μM, 2 hr): 437.2 a° mol/cell
- Cellular Ed6Br (H9 cells [3]; external 5 μM, 3 hr): 468.8 a° mol/cell
- Cellular Ed6Br (H9 cells [3]; external 5 μM, 4 hr): 548.9 a° mol/cell
- Cellular Ed6Br (H9 cells [3]; external 25 μM, 0 hr): 316.2 a° mol/cell
- Cellular Ed6Br (H9 cells [3]; external 25 μM, 1 hr): 716.3 a° mol/cell
- Cellular Ed6Br (H9 cells [3]; external 25 μM, 2 hr): 1073.4 a° mol/cell
- Cellular Ed6Br (H9 cells [3]; external 25 μM, 3 hr): 1689.3 a° mol/cell
- Cellular Ed6Br (H9 cells [3]; external 25 μM, 4 hr): 1748.8 a° mol/cell

Compound: CCCCCCNc1ccc2c3c(cccc13)C(=O)N(CCCCCC)C2=O [Compound 1b, 4-(hexyl)amino-N-hexyl-1,8-naphthalimide]
- localization in cell nucleus (H9 cells [4]): rigorously excluded from the cell nucleus
- site of dye fluorescence (H9 cells [4]): highly fluorescent with the cytoplasm being the primary site
